In general, pEC50 refers to −log10 of the EC50, conventionally taken in molar units. In general, pIC50 refers to −log10 of the IC50, conventionally taken in molar units.

Structures are written as SMILES. pEC50, pIC50: −log10 of the molar value.

EC50 and IC50 data for seven compounds are collected here from ChEMBL document CHEMBL1159193, “Synthesis and in vitro anti-human immunodeficiency virus activity of artemisinin (qinghaosu)-related trioxanes” (Bioorg Med Chem Lett, 1994).

The nature of assay [1]: In vitro anti-HIV activity in human peripheral blood mononuclear (PBM) cells acutely infected with HIV-1 LAI. Type of assay: functional.
Assay [2] is described as follows: In vitro cytotoxicity assessed by measuring [3H]-thymidine uptake in human peripheral blood mononuclear (PBM) cells. Type of assay: functional.

On to `COC(=O)c1ccc([C@H]2OOC3(CCC[C@@H](C)C3)[C@@H](OC)O2)cc1` (some centres undefined), for which, in assay [1], the pEC50 was < 4.00. For the same compound, the pIC50 in assay [2] is < 4.00.
Compound `CCCC[C@H]1O[C@@H]2O[C@]3(C)CC[C@H]4[C@H](C)CC[C@@H]([C@H]1C)[C@@]24OO3` had a pEC50 in assay [1] of 5.33. Further, in assay [2], the pIC50 is 5.89.
The corresponding values for `C[C@@H]1CC[C@H]2[C@@H](C)CCO[C@@H]3O[C@]4(C)CC[C@@H]1[C@]32OO4` are 4.30 and < 4.00.
The corresponding values for `C[C@@H]1CC[C@H]2[C@@H](C)C(=O)O[C@@H]3O[C@@]4(C)CC[C@@H]1[C@]32OO4` [ARTEMISININ] are < 4.00 and < 4.00.
For `CCO[C@H]1O[C@@H]2O[C@@]3(C)CC[C@H]4[C@H](C)CC[C@@H]([C@H]1C)[C@@]24OO3` [ARTEMOTIL] the same measures were 4.39 and 4.51.
On to `C[C@@H]1CC[C@H]2[C@@H](C)CO[C@@H]3O[C@]4(C)CC[C@@H]1[C@]32OO4` [DEOXOARTEMISININ], for which, in assay [1], the pEC50 was < 4.00. In addition, in assay [2], the pIC50 was < 4.00.
As for `Cc1cn([C@H]2C[C@H](N=[N+]=[N-])[C@@H](CO)O2)c(=O)[nH]c1=O` [ZIDOVUDINE], in assay [1], the pEC50 was 8.40. In assay [2], the pIC50 is < 4.00.
